{"source": "patent US8716226B2", "about": "“3,5 phenyl-substituted beta amino acid derivatives as integrin antagonists” (Saint Louis University, priority 2012, dated 2014)", "key": {"αvβ6": {"biological_target": "T1, αvβ6 (Homo sapiens, UniProt P06756+P18564)", "T1 construct": "HT-29 cells (American Type Culture Collection, Manassas, Va.), which naturally express αvβ6; endogenous in cells; host or cells: HT-29 (human colon adenocarcinoma, ATCC)", "T1 sequence (P06756 31-889 limits assumed)": "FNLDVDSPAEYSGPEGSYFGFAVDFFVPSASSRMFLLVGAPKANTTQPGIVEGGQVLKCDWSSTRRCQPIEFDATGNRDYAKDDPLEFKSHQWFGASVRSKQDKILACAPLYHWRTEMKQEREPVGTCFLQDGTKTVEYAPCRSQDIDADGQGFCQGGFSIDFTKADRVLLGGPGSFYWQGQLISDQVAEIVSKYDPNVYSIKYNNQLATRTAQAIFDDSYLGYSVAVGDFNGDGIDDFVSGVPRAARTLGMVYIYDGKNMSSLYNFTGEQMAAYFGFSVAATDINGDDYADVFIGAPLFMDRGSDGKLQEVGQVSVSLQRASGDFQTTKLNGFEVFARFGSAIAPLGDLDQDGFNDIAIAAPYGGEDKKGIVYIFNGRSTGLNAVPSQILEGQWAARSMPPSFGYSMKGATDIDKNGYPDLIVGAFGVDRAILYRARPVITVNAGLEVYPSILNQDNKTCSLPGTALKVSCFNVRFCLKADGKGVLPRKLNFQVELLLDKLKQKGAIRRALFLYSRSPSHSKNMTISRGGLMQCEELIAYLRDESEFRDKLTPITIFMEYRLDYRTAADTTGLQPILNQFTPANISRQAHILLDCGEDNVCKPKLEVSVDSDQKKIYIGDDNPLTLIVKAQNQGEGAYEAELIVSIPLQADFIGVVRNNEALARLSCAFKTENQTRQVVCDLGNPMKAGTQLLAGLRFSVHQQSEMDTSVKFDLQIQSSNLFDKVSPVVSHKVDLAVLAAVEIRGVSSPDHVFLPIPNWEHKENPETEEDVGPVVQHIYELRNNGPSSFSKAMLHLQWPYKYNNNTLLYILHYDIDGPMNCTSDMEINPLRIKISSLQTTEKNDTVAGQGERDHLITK", "T1 sequence (P06756 891-1048 partner limits assumed)": "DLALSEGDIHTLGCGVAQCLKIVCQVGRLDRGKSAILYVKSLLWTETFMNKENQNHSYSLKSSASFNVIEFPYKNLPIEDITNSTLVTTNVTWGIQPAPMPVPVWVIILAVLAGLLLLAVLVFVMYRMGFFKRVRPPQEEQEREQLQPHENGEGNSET", "T1 sequence (P18564 22-788)": "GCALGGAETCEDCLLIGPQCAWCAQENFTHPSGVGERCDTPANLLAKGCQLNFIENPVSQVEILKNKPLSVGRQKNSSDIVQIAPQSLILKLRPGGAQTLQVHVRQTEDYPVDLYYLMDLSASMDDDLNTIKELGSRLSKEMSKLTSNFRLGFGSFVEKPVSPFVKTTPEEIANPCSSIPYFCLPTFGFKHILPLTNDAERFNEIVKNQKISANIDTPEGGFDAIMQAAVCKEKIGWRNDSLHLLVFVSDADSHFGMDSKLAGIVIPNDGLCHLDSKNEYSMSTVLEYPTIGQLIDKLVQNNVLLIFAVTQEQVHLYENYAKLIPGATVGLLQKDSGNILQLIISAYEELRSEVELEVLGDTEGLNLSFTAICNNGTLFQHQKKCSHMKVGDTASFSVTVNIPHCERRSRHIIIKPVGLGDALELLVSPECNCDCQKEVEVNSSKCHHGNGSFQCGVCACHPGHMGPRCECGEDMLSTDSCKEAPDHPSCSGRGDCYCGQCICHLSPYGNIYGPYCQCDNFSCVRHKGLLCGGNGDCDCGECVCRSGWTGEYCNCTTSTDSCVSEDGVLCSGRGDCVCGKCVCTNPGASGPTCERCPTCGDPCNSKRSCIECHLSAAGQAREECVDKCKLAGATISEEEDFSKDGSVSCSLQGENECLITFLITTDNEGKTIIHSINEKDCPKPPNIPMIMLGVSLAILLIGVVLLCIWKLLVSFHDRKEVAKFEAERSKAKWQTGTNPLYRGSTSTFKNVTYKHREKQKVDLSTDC", "test": "HT-29 cell adhesion assay for αvβ6 function", "type": "cell-based", "conditions": "HT-29 cells, adhesion to human LAP", "method": "HT-29 Cell Adhesion Assay for αvβ6 Function.\n(§1) Purified human LAP protein (R&D Systems, Inc) diluted to 0.2 μg/ml in TS buffer (25 mM Tris 7.4, 150 mM NaCl) was added to wells (100 μl/well) of a 96-well microtiter plate (Immulon 2HB 96-well; VWR Scientific) and incubated overnight at 4° C. The solution in each well was then replaced with 200 μl of blocking buffer (TS with 1% bovine serum albumin), and the plate incubated for 1 hr at 37° C. Compounds were diluted in test tubes to 2× the peak testing concentration in cell adhesion buffer consisting of Hanks Buffered Salts Solution (HBSS, cation-free, Sigma), 0.1% bovine serum albumin, 25 mM HEPES, and 200 μM MnCl2. […] The cells were washed with the cell adhesion buffer, counted using a hemocytometer, centrifuged and resuspended in cell adhesion buffer at 4×10^6 cells/ml. […] Remaining attached cells were detected by addition of 100 μl/well p-nitrophenylphosphate (Sigma) solution (15 mg tablet dissolved in 25 ml 50 mM NaAcetate, pH5; 0.5% Triton-X-100), incubation for 30 min at 37° C., and then addition of 50 μl/well 1N NaOH to stop the enzyme reaction. Plates were read by colorimetric detection at 405 nm wavelength using a Tecan Safire II plate reader. Concentration-response curves were constructed by non-linear regression (best fit) analysis, and IC50 values were calculated for each compound. […]"}, "α5β1": {"biological_target": "T2, α5β1 (Homo sapiens, UniProt P05556+P08648)", "T2 construct": "K562 cells (American Type Culture Collection, Manassas, Va.) which naturally express high levels of α5β1; endogenous in cells; host or cells: K562 (human erythroleukemia, ATCC)", "T2 sequence (P08648 42-894 limits assumed)": "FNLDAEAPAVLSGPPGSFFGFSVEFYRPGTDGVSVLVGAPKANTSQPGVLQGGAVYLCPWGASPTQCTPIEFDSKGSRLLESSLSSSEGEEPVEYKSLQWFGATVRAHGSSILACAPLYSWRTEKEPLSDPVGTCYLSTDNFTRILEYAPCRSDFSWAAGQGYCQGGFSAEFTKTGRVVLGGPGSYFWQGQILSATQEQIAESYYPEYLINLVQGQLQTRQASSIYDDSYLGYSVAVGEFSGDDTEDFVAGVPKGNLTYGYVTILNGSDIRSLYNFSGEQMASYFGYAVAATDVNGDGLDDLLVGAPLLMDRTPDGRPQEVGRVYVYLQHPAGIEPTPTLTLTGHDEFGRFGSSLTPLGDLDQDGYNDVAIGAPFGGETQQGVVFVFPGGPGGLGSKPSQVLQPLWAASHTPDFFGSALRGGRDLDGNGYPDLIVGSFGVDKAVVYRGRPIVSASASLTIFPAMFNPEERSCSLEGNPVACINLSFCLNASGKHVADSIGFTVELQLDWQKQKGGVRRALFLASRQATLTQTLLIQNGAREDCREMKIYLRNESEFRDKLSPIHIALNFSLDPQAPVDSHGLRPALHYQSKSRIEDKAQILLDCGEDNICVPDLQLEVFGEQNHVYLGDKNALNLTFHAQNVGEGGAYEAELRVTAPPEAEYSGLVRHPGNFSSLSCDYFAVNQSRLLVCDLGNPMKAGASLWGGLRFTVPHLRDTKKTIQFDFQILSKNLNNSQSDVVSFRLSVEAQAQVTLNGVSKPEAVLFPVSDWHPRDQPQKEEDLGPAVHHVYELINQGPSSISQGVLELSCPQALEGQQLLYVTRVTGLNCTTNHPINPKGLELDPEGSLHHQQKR", "T2 sequence (P08648 895-1049 partner limits assumed)": "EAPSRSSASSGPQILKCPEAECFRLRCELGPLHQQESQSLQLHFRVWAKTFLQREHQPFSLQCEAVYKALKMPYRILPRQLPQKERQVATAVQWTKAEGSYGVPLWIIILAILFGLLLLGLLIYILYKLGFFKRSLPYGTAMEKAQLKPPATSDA", "T2 sequence (P05556 21-798)": "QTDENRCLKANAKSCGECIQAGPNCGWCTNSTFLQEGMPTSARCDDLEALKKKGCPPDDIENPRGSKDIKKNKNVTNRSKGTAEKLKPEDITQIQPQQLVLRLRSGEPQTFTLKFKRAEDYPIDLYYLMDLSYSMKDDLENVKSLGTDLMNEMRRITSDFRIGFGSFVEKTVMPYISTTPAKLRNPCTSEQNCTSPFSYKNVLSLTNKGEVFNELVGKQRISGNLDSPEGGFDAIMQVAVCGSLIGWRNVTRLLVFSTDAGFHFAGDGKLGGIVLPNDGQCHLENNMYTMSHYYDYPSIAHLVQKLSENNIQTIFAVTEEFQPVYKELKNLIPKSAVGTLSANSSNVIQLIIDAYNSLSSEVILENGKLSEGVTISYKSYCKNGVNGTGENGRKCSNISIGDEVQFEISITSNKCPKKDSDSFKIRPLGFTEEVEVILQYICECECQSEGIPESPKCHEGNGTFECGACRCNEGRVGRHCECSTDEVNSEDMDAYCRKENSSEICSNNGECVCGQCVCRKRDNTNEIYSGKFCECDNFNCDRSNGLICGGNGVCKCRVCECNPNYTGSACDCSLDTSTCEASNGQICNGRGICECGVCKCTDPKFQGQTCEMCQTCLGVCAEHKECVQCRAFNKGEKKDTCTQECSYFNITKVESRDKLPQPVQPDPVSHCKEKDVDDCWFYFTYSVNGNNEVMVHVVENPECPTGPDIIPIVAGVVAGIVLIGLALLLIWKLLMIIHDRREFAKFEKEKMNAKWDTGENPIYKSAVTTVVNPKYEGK", "test": "K562 cell adhesion assay for α5β1 function", "type": "cell-based", "conditions": "K562 cells, adhesion to human plasma fibronectin", "method": "K562 Cell Adhesion Assay for α5β1 Function.\nas §1, with “plasma fibronectin (Calbiochem/EMD Biosciences)” for “LAP protein (R&D Systems, Inc)”, “5” for “0.2”, “3×10^6” for “4×10^6”, “pH 5;” for “pH5;”"}}, "note": "pIC50: −log10 of the molar value."}
{"smiles": "CC(C)(C)c1cc(Br)cc([C@H](CC(=O)O)NC(=O)CNC(=O)c2cc(O)cc(NC3=NCC(O)CN3)c2)c1", "note": "(stereo partly drawn) [Example 1, (3S)—N-[3-hydroxy-5-[(1,4,5,6-tetrahydro-5-hydroxy-2-pyrimidinyl)amino]benzoyl]glycyl-3-(3-bromo-5-tert-butylphenyl)-β-alanine]", "values": [{"measurement": "pIC50", "setting": "αvβ6", "value": 8.82}, {"measurement": "pIC50", "setting": "α5β1", "value": 8.38}]}
